The target of data set [1] is full-length FLAG-tagged B-Raf(V600E) (Homo sapiens (Human), UniProt P15056, V600E). In words: BRAF V600E enzyme assay (TR-FRET competitive displacement of fluorescent tracer). It counts as binding. Particulars: averaged IC50; 60 min at ambient temperature; 11-point dosing, top dose 10 μM. The text has this:
(§1) A competitive displacement assay was configured for B-Raf that monitors the amount of a fluorescently-tagged “tracer” bound to B-Raf via TR-FRET from an anti-tag Eu-labeled antibody also bound to B-Raf.
(§2) [formula] • where: • Xmax Average Uninhibited Controls • Xmin Average Background
(§3) A 4-parameter logistic model was the fit to the POC data for each compound.

Data set [2] has as its system LLC-PK1 or MDCKII cell monolayer.
Description: (§4) Both LLC-PK1 and MDR1 transfected LLC-PK1 cells were cultured and plated according to manufacturer's recommendations with the exception that the passage media contained only 2% fetal bovine serum to extend passage time out to seven days.
(§5) BCRP transfected MDCKII cells were cultured and plated according to manufacturer's recommendations. Assay conditions included with and without the BCRP-specific inhibitor, K0143, at a concentration of 0.3 μM to ascertain the contribution of BCRP to the efflux value of the test compound.
(§6) Both positive and negative controls were used to assess functionality of P-gp or BCRP efflux in the assays. […] Final organic concentration in the assay was 1%. All dosing solutions contained 10 μM lucifer yellow to monitor LLC-PK1 or MDCKII cell monolayer integrity.
(§7) For the apical to basolateral determination (A to B), 75 μL of the test article in transport buffer were added to the apical side of the individual transwells and 250 μL of basolateral media, without compound or lucifer yellow, were added to each well. For the basolateral to apical determination (B to A), 250 μL of test article in transport buffer were added to each well and 75 μL transport buffer, without compound or lucifer yellow, were added to each transwell. All tests were performed in triplicate, and each compound was tested for both apical to basolateral and basolateral to apical transport. The plates were incubated for 2 hours on a Lab-Line Instruments Titer Orbital Shaker (VWR, West Chester, Pa.) at 50 rpm and 37° C. with 5% CO2. All culture plates were removed from the incubator and 50 μL of media were removed from the apical and basolateral portion of each well and added to 150 μL of 1 μM labetalol in 2:1 acetonitrile (acetonitrile): H2O, v/v.
(§8) These values were accepted when found to be below 2% for apical to basolateral and 5% basolateral to apical flux across the MDR1-transfected LLC-PK1 or BCRP-transfected MDCKII cell monolayers. The plates were sealed and the contents of each well analyzed by LC-MS/MS. The compound concentrations were determined from the ratio of the peak areas of the compound to the internal standard (labetalol) in comparison to the dosing solution.
(§9) The LC-MS/MS system was comprised of an HTS-PAL autosampler (Leap Technologies, Carrboro, N.C.), an HP1200 HPLC (Agilent, Palo Alto, Calif.), and a MDS Sciex 4000 Q Trap system (Applied Biosystems, Foster City, Calif.). […] The total run time, including re-equilibration, for a single injection was 1.2 minutes. Mass spectrometric detection of the analytes was accomplished using the ion spray positive mode.
(§10) where Cd, V, t and C0 are the detected concentration (μM), the volume on the dosing side (mL); the incubation time (s) and the initial dosing concentration (μM), respectively. The calculations for Papp were made for each replicate and then averaged.
For data set [3], the system named is A375-luciferase intracranial tumor xenografts. In words: Intracranial A375-luciferase efficacy and survival mouse tumor model. In kind it is in vivo, female nu/nu NCr mice. Particulars: for Survival (# Animals on day 90): n=10. The protocol: Female nu/nu NCr mice from Envigo (Indianapolis, Ind.) were obtained at 5-6 weeks of age and housed in groups of 5. Following a one week minimum acclimation period, mice received orthotopic (i.c.) intracranial injections of 3.0×10^3 A375-luciferase tumor cells suspended in a volume of 10 μL 0.9% sterile Dulbecco's phosphate buffered saline (DPBS) using the top-down approach (Laursen and Belknap, 1986). Seven days post cell implant (Day 1), animals were randomized and sorted into five groups (n=10/group).
Test compounds were given at a dose volume of 10 mL/kg, and vehicles were matched for each group to control for dosing stress, i.e. all groups received twice daily (BID) dose administration by oral gavage (PO) at the relevant dose volumes and schedule shown in Table 9. Tumor growth was monitored by measuring luciferase activity twice per week. Total flux/mouse can vary by an order of magnitude on day 1 of study start (start of dosing). The total flux was normalized per mouse by assigning the first measurement of flux on […] as 100%. Body weight loss as an indicator of tumor progression was determined daily during the dosing interval and then as needed (at least once weekly). Survival was evaluated through day 90 (30 days post-dosing cessation).

In data set [4] the test system is BCRP. Particulars: reported in the literature; cited from earlier work.
Data set [5] has as its target T1, BCRP (Homo sapiens (Human), UniProt Q9UNQ0). In words: BCRP MDCKII permeability assay: efflux ratio. Particulars: BCRP transfected MDCKII cells; Papp(B−A)/Papp(A−B); test article 1 μM; 2 hours.
Description: as §5, §6, §7, §8, §9
(§11) An efflux ratio is calculated from the mean apical to basolateral (A−B) Papp data and basolateral to apical (B−A) Papp data: Efflux ratio=Papp(B−A)/Papp(A−B)
In data set [6] the target is T2, P-gp (MDR1) (Homo sapiens (Human), UniProt P08183). In words: MDR1 LLC-PK1 permeability assay: efflux ratio. Particulars: MDR1 transfected LLC-PK1 cells; Papp(B−A)/Papp(A−B); test article 1 μM; 2 hours.
T2 sequence (P08183 whole entry, species assumed): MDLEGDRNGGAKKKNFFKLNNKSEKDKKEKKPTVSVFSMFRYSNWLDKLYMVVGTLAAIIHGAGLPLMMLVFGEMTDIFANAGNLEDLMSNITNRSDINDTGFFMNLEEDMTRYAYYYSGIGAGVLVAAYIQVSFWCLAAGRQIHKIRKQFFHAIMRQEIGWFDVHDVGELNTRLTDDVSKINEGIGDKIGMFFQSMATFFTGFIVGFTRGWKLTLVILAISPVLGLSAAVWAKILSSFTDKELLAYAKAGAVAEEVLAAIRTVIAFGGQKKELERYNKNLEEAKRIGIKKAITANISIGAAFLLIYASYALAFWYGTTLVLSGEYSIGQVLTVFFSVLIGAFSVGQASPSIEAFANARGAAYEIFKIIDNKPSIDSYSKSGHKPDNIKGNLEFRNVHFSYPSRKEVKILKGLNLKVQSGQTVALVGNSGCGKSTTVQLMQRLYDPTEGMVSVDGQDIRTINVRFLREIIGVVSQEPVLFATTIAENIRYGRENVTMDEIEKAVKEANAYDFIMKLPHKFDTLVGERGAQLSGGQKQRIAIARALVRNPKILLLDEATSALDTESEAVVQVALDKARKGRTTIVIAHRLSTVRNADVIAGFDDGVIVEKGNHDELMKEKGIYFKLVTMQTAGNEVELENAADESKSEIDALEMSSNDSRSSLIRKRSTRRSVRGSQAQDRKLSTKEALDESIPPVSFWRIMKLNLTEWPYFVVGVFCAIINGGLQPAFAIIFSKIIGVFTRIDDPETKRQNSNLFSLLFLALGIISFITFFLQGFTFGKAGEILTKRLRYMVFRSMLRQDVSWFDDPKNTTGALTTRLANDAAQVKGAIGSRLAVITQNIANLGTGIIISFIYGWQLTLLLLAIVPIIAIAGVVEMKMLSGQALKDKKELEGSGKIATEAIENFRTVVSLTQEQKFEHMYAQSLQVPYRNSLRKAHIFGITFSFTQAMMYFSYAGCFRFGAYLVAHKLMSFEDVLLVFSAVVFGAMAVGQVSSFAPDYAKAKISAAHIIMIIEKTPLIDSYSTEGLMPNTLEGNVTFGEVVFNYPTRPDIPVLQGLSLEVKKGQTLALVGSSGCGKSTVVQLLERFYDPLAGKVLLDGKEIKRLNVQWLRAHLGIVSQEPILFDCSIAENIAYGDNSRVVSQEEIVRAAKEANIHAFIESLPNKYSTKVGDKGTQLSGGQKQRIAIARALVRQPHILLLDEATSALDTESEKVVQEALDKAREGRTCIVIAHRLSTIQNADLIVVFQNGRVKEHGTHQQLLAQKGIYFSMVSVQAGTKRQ
The subject of data set [7] is LLC-PK1 or MDCKII cell monolayer. The data set can be described thus: MDR1 LLC-PK1 and BCRP MDCKII permeability assay: permeability coefficient (Papp). Particulars: permeability coefficient Papp; test article 1 μM; 2 hours, 37° C.
Description: as §4, §5, §6, §7, §8, §9, §10
Data set [8] has as its target T1, BCRP. Particulars: dog, 2 h, 1 µM.
Description: as §5, §6, §7, §8, §9, §11
Data set [9] deals with T2, P-gp (MDR1). Particulars: pig, LLC-PK1, 2 h, 1 µM.
Data set [10] deals with N-terminally GST-tagged B-Raf(V600K) (Homo sapiens, UniProt P15056, V600K). The data set can be described thus: BRAF V600K enzyme assay (TR-FRET competitive displacement of fluorescent tracer). In kind it is binding. Particulars: averaged IC50; 60 min at ambient temperature; 11-point dosing, top dose 10 μM.
Sequence of N-terminally GST-tagged B-Raf(V600K) (P15056 2-766 V600K limits assumed): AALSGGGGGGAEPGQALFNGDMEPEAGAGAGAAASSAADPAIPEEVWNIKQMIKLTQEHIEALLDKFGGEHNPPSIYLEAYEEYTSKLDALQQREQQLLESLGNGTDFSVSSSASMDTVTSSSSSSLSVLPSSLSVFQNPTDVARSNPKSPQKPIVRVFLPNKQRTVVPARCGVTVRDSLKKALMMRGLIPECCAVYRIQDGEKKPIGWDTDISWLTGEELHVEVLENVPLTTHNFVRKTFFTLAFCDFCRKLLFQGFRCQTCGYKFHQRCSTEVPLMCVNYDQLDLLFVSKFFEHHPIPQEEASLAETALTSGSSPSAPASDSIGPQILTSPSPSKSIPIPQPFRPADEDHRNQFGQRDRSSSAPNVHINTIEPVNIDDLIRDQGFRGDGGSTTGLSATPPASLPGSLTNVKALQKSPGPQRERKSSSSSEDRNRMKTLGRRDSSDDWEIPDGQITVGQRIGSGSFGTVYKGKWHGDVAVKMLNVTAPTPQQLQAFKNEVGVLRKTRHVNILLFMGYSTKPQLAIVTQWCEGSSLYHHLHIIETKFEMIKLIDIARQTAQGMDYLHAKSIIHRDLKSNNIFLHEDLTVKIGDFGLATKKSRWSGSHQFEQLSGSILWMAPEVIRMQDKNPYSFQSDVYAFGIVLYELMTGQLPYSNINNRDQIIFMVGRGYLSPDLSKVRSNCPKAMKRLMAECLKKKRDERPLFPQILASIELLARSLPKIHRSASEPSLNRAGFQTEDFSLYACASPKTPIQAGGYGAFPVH
Description: as §1, §2, §3

Data set [11] can be described thus: PK (free brain-to-free plasma ratio) (mouse). In kind it is in vivo. Particulars: unbound brain-to-unbound plasma concentration ratio; male CD-1 mice; oral gavage 10 mg/kg; sampling 2-24 hours. The protocol:
PK (Free Brain-to-Free Plasma Ratio) (Mouse)
The ability of representative compounds to penetrate the BBB in mice was determined by evaluating the unbound brain-to-unbound plasma (also referred to as free brain-to-free plasma) concentration ratio in male CD-1 mice.
Brain samples were stored at −20±5° C. prior to analysis. Concentrations of test compound in mouse brain homogenate were determined by liquid chromatography tandem mass spectrometry (LC-MS/MS) following protein precipitation with acetonitrile. A 12-point calibration curve, ranging from 0.5 to 10,000 ng/mL, was prepared in duplicate. A solution of 400 μg/mL of test compound in dimethyl sulfoxide (DMSO) was serially diluted (3-fold) in 100% DMSO, and then 2.5 μL of each standard solution was added to 100 μL of naïve male CD-1 mice brain homogenate. To mimic the extraction in the standard curve, 2.5 μL of DMSO was added to all test samples. Both calibration and test brain homogenate samples were spiked with 10 μL of an IS (1 μg/mL of a structural analog). Brain homogenate was generated by adding 0.75 mL of 4:1 water:MeOH to each brain sample followed by homogenization for 1 minute with bead beater tubes a 6 m/s using an MP Fast Prep-24®. Proteins were precipitated from 100 μL of brain homogenate sample by the addition of 300 μL of acetonitrile. […] A 100 μL aliquot of each supernatant was transferred via a 550 μL Personal Pipettor (Apricot Designs, Monrovia, Calif.) to 96-well plates and diluted 1:1 with HPLC grade water. The resulting plates were sealed with aluminum for LC-MS/MS analysis.
Brain-to-plasma ratios were calculated using the concentration of compound measured in the brain divided by the concentration of compound measured in the plasma. Brain-to-plasma ratios were always generated from a single animal and time point. Free brain-to-free plasma ratios were calculated by multiplying the brain-to-plasma ratio by the in vitro brain homogenate free fraction divided by the in vitro plasma free fraction using the following equation: (B/P)*(Bfu/Pfu).

The source of these data is patent US11414404B2, “Compounds for the treatment of BRAF-associated diseases and disorders” (Array BioPharma Inc., priority 2019, dated 2022).

Read-outs that look alike come from different tables or passages of the source.

Sequence of full-length FLAG-tagged B-Raf(V600E) (P15056 whole entry V600E): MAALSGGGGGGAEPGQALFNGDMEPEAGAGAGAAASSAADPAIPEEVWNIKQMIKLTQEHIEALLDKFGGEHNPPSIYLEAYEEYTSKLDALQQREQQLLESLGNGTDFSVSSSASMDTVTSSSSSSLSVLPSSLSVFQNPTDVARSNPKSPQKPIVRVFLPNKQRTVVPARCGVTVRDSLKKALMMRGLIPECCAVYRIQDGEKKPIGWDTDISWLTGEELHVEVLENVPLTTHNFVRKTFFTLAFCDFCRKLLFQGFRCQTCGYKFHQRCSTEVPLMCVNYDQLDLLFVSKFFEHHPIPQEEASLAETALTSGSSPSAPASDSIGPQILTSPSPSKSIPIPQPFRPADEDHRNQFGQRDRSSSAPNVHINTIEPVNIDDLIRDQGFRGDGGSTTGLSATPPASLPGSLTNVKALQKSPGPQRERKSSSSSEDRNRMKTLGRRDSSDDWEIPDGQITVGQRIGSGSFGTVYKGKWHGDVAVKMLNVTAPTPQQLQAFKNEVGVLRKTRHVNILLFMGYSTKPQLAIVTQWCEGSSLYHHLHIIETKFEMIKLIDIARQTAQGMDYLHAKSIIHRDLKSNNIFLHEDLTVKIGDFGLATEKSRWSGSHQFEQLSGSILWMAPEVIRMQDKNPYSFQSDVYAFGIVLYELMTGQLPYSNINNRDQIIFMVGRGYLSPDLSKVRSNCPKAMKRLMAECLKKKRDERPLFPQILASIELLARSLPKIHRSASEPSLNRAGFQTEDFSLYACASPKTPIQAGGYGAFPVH
T1 sequence (Q9UNQ0 whole entry, species assumed): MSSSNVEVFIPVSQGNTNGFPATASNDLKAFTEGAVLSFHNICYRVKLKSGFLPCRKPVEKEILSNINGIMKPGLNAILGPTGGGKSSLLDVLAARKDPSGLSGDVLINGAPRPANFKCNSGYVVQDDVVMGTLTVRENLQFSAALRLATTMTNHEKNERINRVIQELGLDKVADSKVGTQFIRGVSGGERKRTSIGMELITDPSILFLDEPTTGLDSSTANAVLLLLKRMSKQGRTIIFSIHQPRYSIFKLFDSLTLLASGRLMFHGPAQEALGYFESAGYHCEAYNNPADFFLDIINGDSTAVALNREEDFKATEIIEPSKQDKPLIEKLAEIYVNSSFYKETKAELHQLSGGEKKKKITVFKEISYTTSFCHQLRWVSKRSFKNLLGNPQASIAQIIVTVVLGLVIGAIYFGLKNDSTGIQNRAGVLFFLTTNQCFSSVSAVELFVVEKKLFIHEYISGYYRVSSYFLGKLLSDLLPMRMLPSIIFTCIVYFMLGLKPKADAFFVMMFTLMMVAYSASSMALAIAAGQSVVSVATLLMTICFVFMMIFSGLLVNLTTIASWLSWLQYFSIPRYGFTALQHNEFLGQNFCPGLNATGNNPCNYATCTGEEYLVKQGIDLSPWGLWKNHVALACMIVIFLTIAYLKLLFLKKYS

Compound `CCCS(=O)(=O)Nc1cc(Cl)cc(Nc2ccc3ncn(C)c(=O)c3c2C)c1Cl` [Example 48, N-(2,5-dichloro-3-((3,5-dimethyl-4-oxo-3,4-dihydroquinazoli-6-yl)amino)phenyl)propane-1-sulfonamide] registered an IC50 in data set [1] of 3 nM. In data set [2], the Permeability is recorded as 25.83 *10^−6 cm/s.

`CCCS(=O)(=O)Nc1cccc(Nc2ccc3ncn(C)c(=O)c3c2C)c1C#N` [Example 53, N-(2-cyano-3-((3,5-dimethyl-4-oxo-3,4-dihdyroquinazolin-6-yl)amino)phenyl)propane-1-sulfonamide]: the IC50 in data set [1] is 9.4 nM. Besides, the Permeability in [2] was 27.13 *10^−6 cm/s.

For `CCN(C)S(=O)(=O)Nc1ccc(F)c(Nc2ccc3ncn(C)c(=O)c3c2C)c1Cl` [Example 54, N-(2-chloro-3-((3,5-dimethyl-4-oxo-3,4-dihydroquinazolin-6-yl)amino)-4-fluorophenyl)-N-ethyl-N-methylamino-1-sulfonamide], the IC50 in data set [1] came to 188 nM. Besides, the Permeability in data set [2] was 35.81 *10^−6 cm/s.

With `Cc1c(Nc2c(F)ccc(NS(=O)(=O)CCCF)c2Cl)ccc2ncn(C)c(=O)c12` [Example 82, N-(2-chloro-3-((3,5-dimethyl-4-oxo-3,4-dihydroquinazolin-6-yl)amino)-4-fluorophenyl)-3-fluoropropane-1-sulfonamide], the “Survival (# Animals on day 90)” value in [3] (Example 82 10 mg/kg BID PO 60 days) and in [3] (Example 82 30 mg/kg BID PO 60 days) was 6/10 in each case. Moreover, in [3] (both doses employed (10 and 30 mg/kg BID PO)), the “efficacy as a single agent in the model” value is reported as “highly effective”. In addition, the “effect on tumor growth (total bioluminescence, FIG. 15)” value in data set [3] (single agent, BID for 60 consecutive days PO) is “significant effect”.

For `CC(C)(C)c1nc(-c2cccc(NS(=O)(=O)c3c(F)cccc3F)c2F)c(-c2ccnc(N)n2)s1` [dabrafenib], the BCRP efflux ratio with BCRP [4] was 21.0.

For `CCCS(=O)(=O)Nc1ccc(F)c(C(=O)c2c[nH]c3ncc(-c4ccc(Cl)cc4)cc23)c1F` [vemurafenib], in the data set on BCRP [4], the BCRP efflux ratio was 495.

With “N-(2-chloro-3-((3,5-dimethyl-4-oxo-3,4-dihydroquinazolin-6-yl)amino)-4-fluorophenyl)ethanesulfonamide [Example 52]”, in [1], the IC50 came to 226 nM. Moreover, the BCRP efflux ratio on BCRP [5] was found to be 1.28. Besides, at P-gp (MDR1) [6], the MDR1 efflux ratio is given as 1.76. Moreover, the Permeability in data set [7] is 28.91 *10^−6 cm/s.

“N-(3-((3,5-dimethyl-4-oxo-3,4-dihydroquinazolin-6-yl)amino)-2-fluoro-5-methylphenyl)propane-1-sulfonamide [Example 46]”: the IC50 in data set [1] amounted to 148 nM. The BCRP efflux ratio on BCRP [8] came out at 1.48. In addition, the Permeability in data set [2] (2 h, 1 µM) is listed as 30.74 *10^−6 cm/s. Also, at P-gp (MDR1) [9], the MDR1 efflux ratio came to 1.43.

In turn, “N-(3-chloro-4-((3,5-dimethyl-4-oxo-3,4-dihydroquinazolin-6-yl)amino)-5-fluoropyridin-2-yl)-1-cyclopropylmethanesulfonamide [Example 47]” displayed an IC50 in data set [1] of 41.7 nM. Besides, the BCRP efflux ratio on BCRP [5] came out at 7.93. Further, the MDR1 efflux ratio on P-gp (MDR1) [6] amounted to 1.84. In data set [7], the Permeability was 25.7 *10^−6 cm/s.

In turn, “N-(3-chloro-4-((3,5-dimethyl-4-oxo-3,4-dihydroquinazolin-6-yl)amino)-5-fluoropyridin-2-yl)ethanesulfonamide [Example 45]” showed an IC50 in data set [1] of 137 nM. Further, at BCRP [5], the BCRP efflux ratio is on record as 11.29. The MDR1 efflux ratio on P-gp (MDR1) [6] was determined as 2.47. The Permeability in data set [7] is recorded as 16.56 *10^−6 cm/s.

Consider “N-(3-chloro-4-((3,5-dimethyl-4-oxo-3,4-dihydroquinazolin-6-yl)oxy)-5-fluoropyridin-2-yl)propane-1-sulfonamide [Example 63]”, for which the IC50 worked out at 2.8 nM in data set [1] and 2.4 nM in data set [10]. Moreover, on BCRP [8], the BCRP efflux ratio is recorded as 7.7. In addition, the Permeability in [2] (2 h, 1 µM) was 26.09 *10^−6 cm/s. Moreover, on P-gp (MDR1) [9], the MDR1 efflux ratio is given as 1.3. For the same compound, the “B/P ratio (free)” value in [11] was 0.34-0.4.

On to “N-(4-((3,5-dimethyl-4-oxo-3,4-dihydroquinazolin-6-yl)amino)-3,5-difluoropyridin-2-yl)ethanesulfonamide [Example 43]”, for which the IC50 in [1] was determined as 260 nM. For the same compound, the BCRP efflux ratio on BCRP [5] is listed as 26.02. At P-gp (MDR1) [6], the MDR1 efflux ratio came to 5.24. The Permeability in [7] is given as 8.75 *10^−6 cm/s.

“N-{2-chloro-3-[(3,5-dimethyl-4-oxo-3,4-dihydroquinazolin-6-yl)oxy]-4-fluorophenyl}propane-1-sulfonamide [Example 55]”: the IC50 was found to be 5.4 nM in [1] and 3.1 nM in [10]. For the same compound, the BCRP efflux ratio on BCRP [8] amounted to 0.83. Moreover, the MDR1 efflux ratio at P-gp (MDR1) [9] was 1.1. For the same compound, in [11], the “B/P ratio (free)” value is on record as 0.46-0.51.
